Measurements from US8211929B2, “Pyrimidine derivatives as kinase modulators and method of use” (Exelixis, Inc., priority 2004, dated 2012).
Like-named read-outs stand apart in the source and are kept apart here.

Assays:
[1] = molecular target: T1, (Homo sapiens, UniProt P08069); assay: IGF1R kinase assay (LCCA), IGF 0P; format: biochemical
T1 construct: human IGF1R kinase domain residues M954-C1367; made in house; host or cells: baculovirus expression (insect cells)
How it was run: (§1)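 Baculovirus-expressed human IGF1R kinase domain (M954-C1367), 4 nM, with 3 μM ATP and 4 μM poly EY in Tris-HCl pH 7.5 buffer containing MgCl2 and MnCl2, 2 h at ambient temperature. Remaining ATP read by luciferase chemiluminescence; IC50 from 10-point dose-response fitted to a four-parameter equation.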

IGF 3P = molecular target: T2, IGF 3P (Homo sapiens, UniProt P08069); assay: IGF1R kinase assay (LCCA), IGF 3P; format: biochemical
T2 construct: human IGF1R kinase domain residues M954-C1367; made in house; host or cells: baculovirus expression (insect cells)
T2 sequence (P08069 954-1367): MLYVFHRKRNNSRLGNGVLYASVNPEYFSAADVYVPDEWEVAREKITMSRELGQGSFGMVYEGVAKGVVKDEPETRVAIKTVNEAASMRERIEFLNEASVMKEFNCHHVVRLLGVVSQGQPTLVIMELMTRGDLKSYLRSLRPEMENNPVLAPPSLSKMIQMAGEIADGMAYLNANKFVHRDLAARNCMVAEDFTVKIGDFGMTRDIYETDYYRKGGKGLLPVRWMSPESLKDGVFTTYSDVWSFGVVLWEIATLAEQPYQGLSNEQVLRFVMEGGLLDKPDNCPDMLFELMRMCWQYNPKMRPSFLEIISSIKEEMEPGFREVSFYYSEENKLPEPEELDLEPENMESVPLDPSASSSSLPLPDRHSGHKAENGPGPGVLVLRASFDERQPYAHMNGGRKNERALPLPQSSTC
How it was run: as §1

T1 sequence (P08069 954-1367): as above

IC50 [1]	IC50 (IGF 3P)	IC50 ([1]; IGF 0P)	IC50 (IGF 3P; IGF 3P)	SMILES
50 to 500 nM	50 to 500 nM	–	–	Cc1cc(Nc2cc(C3CC3)[nH]n2)nc(NCc2cc(-c3ccncc3)no2)n1 [Example 620, N^4-(5-cyclopropyl-1H-pyrazol-3-yl)-6-methyl-N^2-[(3-pyridin-4-ylisoxazol-5-yl)methyl]pyrimidine-2,4-diamine]
50 to 500 nM	< 50 nM	–	–	Cc1cc(Nc2cc(C3CC3)[nH]n2)nc(NCc2cc(-c3cnccn3)no2)n1 [Example 623, N^4-(5-cyclopropyl-1H-pyrazol-3-yl)-6-methyl-N^2-[(3-pyrazin-2-ylisoxazol-5-yl)methyl]pyrimidine-2,4-diamine]
50 to 500 nM	< 50 nM	–	–	CN1CCN(c2cc(Nc3cc(C4CC4)[nH]n3)nc(NCc3cc(-c4ccncn4)no3)n2)CC1 [Example 628, N^4-(5-cyclopropyl-1H-pyrazol-3-yl)-6-(4-methylpiperazin-1-yl)-N^2-[(3-pyrimidin-4-ylisoxazol-5-yl)methyl]pyrimidine-2,4-diamine]
50 to 500 nM	< 50 nM	–	–	CN1CCN(c2cc(Nc3cc(C4CC4)[nH]n3)nc(NCc3cc(-c4ccoc4)no3)n2)CC1 [Example 629, N^4-(5-cyclopropyl-1H-pyrazol-3-yl)-N^2-[(3-furan-3-ylisoxazol-5-yl)methyl]-6-(4-methylpiperazin-1-yl)pyrimidine-2,4-diamine]
50 to 500 nM	< 50 nM	–	–	Cc1cc(CNc2nc(Nc3cc(C4CC4)[nH]n3)cc(N3CC4CC3CN4C)n2)on1 (centres unmarked) [Example 631, N^4-(5-cyclopropyl-1H-pyrazol-3-yl)-6-(5-methyl-2,5-diazabicyclo[2.2.1]hept-2-yl)-N^2-[(3-methylisoxazol-5-yl)methyl]pyrimidine-2,4-diamine]
50 to 500 nM	< 50 nM	–	–	Cc1cc(CNc2nc(Nc3cc(C4CC4)[nH]n3)cc(NC3CC4CCC3C4)n2)on1 (centres unmarked) [Example 634, N^4-bicyclo[2.2.1]hept-2-yl-N^6-(5-cyclopropyl-1H-pyrazol-3-yl)-N^2-[(3-methylisoxazol-5-yl)methyl]pyrimidine-2,4,6-triamine]
50 to 500 nM	< 50 nM	–	–	Cc1cc(CNc2nc(Nc3cc(C4CC4)[nH]n3)cc(N3C[C@H]4C[C@@H]3CN4Cc3ccccc3)n2)on1 [Example 635, N^4-(5-cyclopropyl-1H-pyrazol-3-yl)-N^2-[(3-methylisoxazol-5-yl)methyl]-6-[(1R,4R)-5-(phenylmethyl)-2,5-diazabicyclo[2.2.1]hept-2-yl]pyrimidine-2,4-diamine]
50 to 500 nM	< 50 nM	–	–	CN(C)CCOc1cc(Nc2cc(C3CC3)[nH]n2)nc(NCc2cc(-c3ccncn3)no2)n1 [Example 638, N^4-(5-cyclopropyl-1H-pyrazol-3-yl)-6-{[2-(dimethylamino)ethyl]oxy}-N^2-[(3-pyrimidin-4-ylisoxazol-5-yl)methyl]pyrimidine-2,4-diamine]
500 to 5000 nM	500 to 5000 nM	–	–	Cc1cc(Nc2cc(C3CC3)[nH]n2)nc(NCc2cc(-c3ccc(F)cn3)no2)n1 [Example 639, N^4-(5-cyclopropyl-1H-pyrazol-3-yl)-N^2-{[3-(5-fluoropyridin-2-yl)isoxazol-5-yl]methyl}-6-methylpyrimidine-2,4-diamine]
50 to 500 nM	< 50 nM	–	–	CN1CCN(c2cc(Nc3cc(C4CC4)[nH]n3)nc(NCc3cc(-c4cccs4)no3)n2)CC1 [Example 640, N^4-(5-cyclopropyl-1H-pyrazol-3-yl)-6-(4-methylpiperazin-1-yl)-N^2-{[3-(2-thienyl)isoxazol-5-yl]methyl}pyrimidine-2,4-diamine]
50 to 500 nM	< 50 nM	–	–	CN(C)CCOc1cc(Nc2cc(C3CC3)[nH]n2)nc(NCc2cc(-c3ccccn3)no2)n1 [Example 641, N^4-(5-cyclopropyl-1H-pyrazol-3-yl)-6-{[2-(dimethylamino)ethyl]oxy}-N^2-[(3-pyridin-2-ylisoxazol-5-yl)methyl]pyrimidine-2,4-diamine]
50 to 500 nM	< 50 nM	–	–	Cc1cc(CNc2nc(Nc3cc(C4CC4)[nH]n3)cc(OCCN3CCCC3)n2)on1 [Example 647, N^4-(5-cyclopropyl-1H-pyrazol-3-yl)-N^2[(3-methylisoxazol-5-yl)methyl]-6-[(2-pyrrolidin-1-ylethyl)oxy]pyrimidine-2,4-diamine]
50 to 500 nM	< 50 nM	–	–	CN1CCN(c2cc(Nc3cc(C4CC4)[nH]n3)nc(NCc3cc(-c4nccs4)no3)n2)CC1 [Example 648, N^4-(5-cyclopropyl-1H-pyrazol-3-yl)-6-(4-methylpiperazin-1-yl)-N^2-{[3-(1,3-thiazol-2-yl)isoxazol-5-yl]methyl}pyrimidine-2,4-diamine]
500 to 5000 nM	500 to 5000 nM	–	–	Cc1cc(Nc2cc(OCCN(C)C)nc(NCc3cc(C)no3)n2)[nH]n1 [Example 650, 6-{[2-(dimethylamino)ethyl]oxy}-N^2-[(3-methylisoxazol-5-yl)methyl]-N^4-(3-methyl-1H-pyrazol-5-yl)pyrimidine-2,4-diamine]

Further lines, the compound ahead of its results:

SMILES	IC50 [1]	IC50 (IGF 3P)	IC50 ([1]; IGF 0P)	IC50 (IGF 3P; IGF 3P)
Cc1cc(Nc2cc(C3CC3)[nH]n2)nc(NCc2cc(-c3ccc(F)c(F)c3)no2)n1 [Example 621, N^4-(5-cyclopropyl-1H-pyrazol-3-yl)-N^2-{[3-(3,4-difluorophenyl)isoxazol-5-yl]methyl}-6-methylpyrimidine-2,4-diamine]	50 to 500 nM	< 50 nM	–	–
Cc1cc(Nc2cc(C3CC3)[nH]n2)nc(NCc2cc(-c3ccc(F)cc3F)no2)n1 [Example 622, N^4-(5-cyclopropyl-1H-pyrazol-3-yl)-N^2-{[3-(2,4-difluorophenyl)isoxazol-5-yl]methyl}-6-methylpyrimidine-2,4-diamine]	50 to 500 nM	< 50 nM	–	–
Clc1c(Nc2cc(C3CC3)n[nH]2)nc(NCc2cc(-c3ccccc3)no2)nc1N1CCOCC1 [Example 624, 5-chloro-N^4-(3-cyclopropyl-1H-pyrazol-5-yl)-6-morpholin-4-yl-N^2-[(3-phenylisoxazol-5-yl)methyl]pyrimidine-2,4-diamine]	50 to 500 nM	50 to 500 nM	–	–
CN1CCN(c2nc(NCc3cc(-c4ccccc4)no3)nc(Nc3cc(C4CC4)n[nH]3)c2Cl)CC1 [Example 625, 5-chloro-N^4-(3-cyclopropyl-1H-pyrazol-5-yl)-6-(4-methylpiperazin-1-yl)-N^2-[(3-phenylisoxazol-5-yl)methyl]pyrimidine-2,4-diamine]	50 to 500 nM	50 to 500 nM	–	–
Cc1cc(Nc2cc(N3CCN(C)CC3)nc(NCc3cc(C)no3)n2)[nH]n1 [Example 626, N^2-[(3-methylisoxazol-5-yl)methyl]-6-(4-methylpiperazin-1-yl)-N^4-(3-methyl-1H-pyrazol-5-yl)pyrimidine-2,4-diamine]	500 to 5000 nM	50 to 500 nM	–	–
Cc1cc(Nc2cc(N3CCOCC3)nc(NCc3cc(C)no3)n2)[nH]n1 [Example 627, N^2-[(3-methylisoxazol-5-yl)methyl]-N^4-(3-methyl-1H-pyrazol-5-yl)-6-morpholin-4-ylpyrimidine-2,4-diamine]	500 to 5000 nM	50 to 500 nM	–	–
Cc1cc(CNc2nc(Nc3cc(C4CC4)[nH]n3)cc(NC3CC4CCC(C3)N4C)n2)on1 (centres unmarked) [Example 630, N^4-(5-cyclopropyl-1H-pyrazol-3-yl)-N^6-(8-methyl-8-azabicyclo[3.2.1]oct-3-yl)-N^2-[(3-methylisoxazol-5-yl)methyl]pyrimidine-2,4,6-triamine]	50 to 500 nM	< 50 nM	–	–
CC(C)c1cc(CNc2nc(Nc3cc(C4CC4)[nH]n3)cc(N3C[C@H]4C[C@@H]3CN4Cc3ccccc3)n2)on1 [Example 636, N^4-(5-cyclopropyl-1H-pyrazol-3-yl)-N^2-{[3-(1-methylethyl)isoxazol-5-yl]methyl}-6-[(1R,4R)-5-(phenylmethyl)-2,5-diazabicyclo[2.2.1]hept-2-yl]pyrimidine-2,4-diamine]	–	–	50 to 500 nM	< 50 nM
c1cc(-c2cc(CNc3nc(Nc4cc(C5CC5)[nH]n4)cc(N4CCOCC4)n3)on2)ncn1 [Example 637, N^4-(5-cyclopropyl-1H-pyrazol-3-yl)-6-morpholin-4-yl-N^2-[(3-pyrimidin-4-ylisoxazol-5-yl)methyl]pyrimidine-2,4-diamine]	50 to 500 nM	< 50 nM	–	–
CN1CCN(c2cc(Nc3cc(C4CC4)n[nH]3)nc(NCc3cc(-c4cncnc4)no3)n2)CC1 [Example 642, N^4-(3-cyclopropyl-1H-pyrazol-5-yl)-6-(4-methylpiperazin-1-yl)-N^2-[(3-pyrimidin-5-ylisoxazol-5-yl)methyl]pyrimidine-2,4-diamine]	50 to 500 nM	< 50 nM	–	–
c1ncc(-c2cc(CNc3nc(Nc4cc(C5CC5)n[nH]4)cc(N4CCOCC4)n3)on2)cn1 [Example 643, N^4-(3-cyclopropyl-1H-pyrazol-5-yl)-6-morpholin-4-yl-N^2-[(3-pyrimidin-5-ylisoxazol-5-yl)methyl]pyrimidine-2,4-diamine]	50 to 500 nM	50 to 500 nM	–	–
CCc1cc(CNc2nc(Nc3cc(C4CC4)n[nH]3)cc(N3CCN(C)CC3)n2)on1 [Example 655, N^4-(3-cyclopropyl-1H-pyrazol-5-yl)-N^2-[(3-ethylisoxazol-5-yl)methyl]-6-(4-methylpiperazin-1-yl)pyrimidine-2,4-diamine]	50 to 500 nM	< 50 nM	–	–
CCc1cc(CNc2nc(Nc3cc(C4CC4)n[nH]3)cc(N3CCOCC3)n2)on1 [Example 656, N^4-(3-cyclopropyl-1H-pyrazol-5-yl)-N^2-[(3-ethylisoxazol-5-yl)methyl]-6-morpholin-4-ylpyrimidine-2,4-diamine]	50 to 500 nM	< 50 nM	–	–
CCc1cc(CNc2nc(Nc3cc(C4CC4)n[nH]3)cc(OCCN(C)C)n2)on1 [Example 657, N^4-(3-cyclopropyl-1H-pyrazol-5-yl)-6-{[2-(dimethylamino)ethyl]oxy}-N^2-[(3-ethylisoxazol-5-yl)methyl]pyrimidine-2,4-diamine]	50 to 500 nM	< 50 nM	–	–
